Results: US6919327B2, “Texaphyrin coordination compounds and uses thereof” (Pharmacyclics, Inc., priority 2000, dated 2005)

Tested on: HepG2 cells
Assay: GdTex / LuTex cell association study in HepG2 cells
Format: cell-based
Details: 50 μM, 4 hours
Protocol: The absorption of GdTex and LuTex, using different sources of the respective texaphyrin, in HepG2 cells was determined, by comparing absorption for GdTex and LuTex in the cell line in medium alone, in medium containing ascorbic acid, and using GdTex and LuTex that had been premixed with ascorbate for a period of time before exposure to the cell line.
The HepG2 tumor cell line, a hepatocellular carcinoma, was obtained from the American Type Culture Collection (ATCC), Manassas, Va. (Catalog # HB-8065). The HepG2 cells were maintained in Eagle's Minimal Essential medium with Earl's BSS and 2 mM L-glutamine (EMEM) that is modified by ATCC to contain 1.0 mM sodium pyruvate, 0.1 mM nonessential amino acids, and 1.5 g/L sodium bicarbonate (ATCC, Cat. # 30-2003) and supplemented with 10% fetal bovine serum (FBS) FBS (Hyclone, Logan, Utah, Lot # AHF8559) and 100U penicillin/100 ug/ml streptomycin (Sigma, St. Louis, Mo.). Cells are fed 1 to 2 times weekly and passed at 3,000,000 cells per 75 cm tissue culture flask (Costar). Cells are passed using 0.25% trypsin, 0.02% EDTA solution (50/50 PBS/trypsin (Sigma)). Cells used were at the 96th passage at the time of use.
HepG2 Cells were plated at a density of 500,000 cells per dish in 100 mm tissue culture dishes containing 10 mL of RPMI media (Gibco, Rockville, Md.) supplemented with 10% fetal bovine serum (Lot# AJC9908), and 100 U/mL penicillin/100 ug/mL streptomycin (Lot # 50K2308, Sigma, St. Louis, Mo.). Cells were plated out 1 to 2 days prior to treating with motexafin gadolinium.
The day prior to treating the dishes with GdTex (9-19-00), an “aged” solution was prepared containing 50 μM GdTex, 100 μM ascorbate, and Catalase (at a concentration 1:1000 of the stock solution concentration provided by the vendor). This solution was incubated at 37° C. 5% CO2 for approximately 24 hours prior to addition to the appropriate test dishes.
On the day of treatment, test solutions were prepared as shown in the Table I below in pre-incubated medium. […]

[1] = freshly prepared solutions made in the presence of ascorbate (100 μM)

SMILES	association with HepG2 cells [1]	association with HepG2 cells (in the absence of ascorbate)
CC(=O)[O-].CC(=O)[O-].CCc1c(CC)c2cc3nc(cnc4cc(OCCOCCOCCOC)c(OCCOCCOCCOC)cc4ncc4nc(cc1[n-]2)C(CCCO)=C4C)C(C)=C3CCCO.O.[Lu+3] [LuTex, motexafin lutetium]	comparable levels of association	
CC(=O)[O-].CC(=O)[O-].CCc1c(CC)c2cc3nc(cnc4cc(OCCOCCOCCOC)c(OCCOCCOCCOC)cc4ncc4nc(cc1[n-]2)C(CCCO)=C4C)C(C)=C3CCCO.O.[Gd+3] [GdTex, motexafin gadolinium]	comparable levels of association	smaller than corresponding LuTex cell association
